One molecule from ChEMBL document CHEMBL5223082, “Alkyl-Aryl-Vancomycins: Multimodal Glycopeptides with Weak Dependence on the Bacterial Metabolic State” (J Med Chem, 2021) can be followed below.

Assay [1] relates to Staphylococcus aureus. Briefly: Antibacterial activity against Methicillin-resistant Staphylococcus aureus ATCC 33591 assessed as inhibition of bacterial growth incubated for 18 to 24 hrs in presence of 50% human plasma by CLSI microbroth dilution method. It counts as functional. Particulars: time 18-24 hrs.
The test system of assay [2] is Staphylococcus aureus. Briefly: Bactericidal activity against methicillin-resistant Staphylococcus aureus ATCC 33591 assessed as log reduction in bacterial colonies at 2XMIC incubated for 6 hrs in broth solution followed by culturing for 24 hrs on agar plate by spot plating method. It counts as functional. The note with it: time 30 hrs.
Assay [3] has as its target T1, Septum site-determining protein MinD (Bacillus subtilis (strain 168)) (UniProt Q01464).
T1 sequence (whole entry): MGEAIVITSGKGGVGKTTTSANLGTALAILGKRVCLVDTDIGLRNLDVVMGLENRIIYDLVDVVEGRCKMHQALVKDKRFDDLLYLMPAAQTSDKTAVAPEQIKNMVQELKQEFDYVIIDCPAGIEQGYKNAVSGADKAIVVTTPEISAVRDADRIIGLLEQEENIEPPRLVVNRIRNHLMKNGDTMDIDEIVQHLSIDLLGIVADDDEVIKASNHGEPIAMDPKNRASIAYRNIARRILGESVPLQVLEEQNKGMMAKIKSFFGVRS
Put plainly: Delocalization of GFP tagged-MinD in Bacillus subtilis 168 at PEC incubated for 15 mins by fluorescence microscopy.

Active and inactive are the calls of the source. The rule behind the calls is not given here.

On to `CCCCCCCCCCNC(=O)C[N+](C)(C)CCCNC(=O)c1ccc(CN[C@@]2(C)C[C@H](O[C@H]3[C@H](Oc4c5cc6cc4Oc4ccc(cc4Cl)[C@@H](O)[C@@H](NC(=O)[C@@H](CC(C)C)NC)C(=O)N[C@@H](CC(N)=O)C(=O)N[C@H]6C(=O)N[C@H]4C(=O)N[C@H](C(=O)N[C@H](C(=O)O)c6cc(O)cc(O)c6-c6cc4ccc6O)[C@H](O)c4ccc(c(Cl)c4)O5)O[C@H](CO)[C@@H](O)[C@@H]3O)O[C@@H](C)[C@H]2O)cc1`, for which the MIC with Staphylococcus aureus [1] came out at 0.9 µM. Besides, the Activity with Staphylococcus aureus [2] was 4.3 log10CFU/ml. In addition, the outcome in assay [3] was inactive.
